# Patent publication US7521423B2, “Exendin pharmaceutical compositions” (Amylin Pharmaceuticals, Inc., priority 1996, dated 2009)
# “Also recorded” adds a separate entry of the source. No end group written: not given here.
# Legend:
# gastric emptying [1] = assay: Antagonism by exendin[9-39] of gastric emptying inhibition by exendin-4 and GLP-1[7-36]NH2 (Example 3); type: in vivo, rats
# Description: (sc), n=6; and 0.3 mg exendin[9-39] (sc), n=6 on the retention of gastric contents 20 minutes after gavage. Also shown are saline controls at t=0 and t=20 min. The error bars show standard error of the mean. […] Exendin[9-39] (sc) alone had no effect on gastric emptying.
# (iv), n=5 on the retention of gastric contents 20 minutes after gavage. Also shown are saline controls at t+0 and t=20 min. The error bars show standard error of the mean.
# (iv), n=3 on the retention of gastric contents 20 minutes after gavage. Also shown are saline controls at t=0 and t=20 min. The error bars show standard error of the mean. […] When injected along with GLP-1[7-36]NH2, exendin[9-39]
# (§1) Conscious rats received by gavage, 1.5 ml of an acaloric gel containing 1.5% methyl cellulose (M-0262, Sigma Chemical Co, St Louis, Mo.) and 0.05% phenol red indicator. Twenty minutes after gavage, rats were anesthetized using 5% halothane, the stomach exposed and clamped at the pyloric and lower esophageal sphincters using artery forceps, removed and opened into an alkaline solution which was made up to a fixed volume. Stomach content was derived from the intensity of the phenol red in the alkaline solution, measured by absorbance at a wavelength of 560 nm. In separate experiments on 7 rats, the stomach and small intestine were both excised and opened into an alkaline solution. The quantity of phenol red that could be recovered from the upper gastrointestinal tract within 20 minutes of gavage was 89±4%; dye which appeared to bind irrecoverably to the gut luminal surface may have accounted for the balance. To account for a maximal dye recovery of less than 100%, percent of stomach contents remaining after 20 min were expressed as a fraction of the gastric contents recovered from control rats sacrificed immediately after gavage in the same experiment. Percent gastric contents remaining =(absorbance at 20 min)/(absorbance at 0 mm)×100.
# In these studies, exendin[9-39] was give both subcutaneously (sc) and intravenously (iv).
# [2] = tested on: pentagastrin-induced gastric acid secretion; settings: reported, Gedulin et al. 1997; cited from earlier work
# food intake = settings: mice, peripheral injection; cited from earlier work
# gastric emptying [3] = assay: Gastric emptying in conscious rats, retention of phenol red methyl cellulose gel 20 min after gavage (Example 1); type: in vivo, Male Harlan Sprague Dawley (HSD) rats; settings: for ED50 of inhibition of gastric emptying: Example 1, FIG. 2, subcutaneous injection, 20 min after gavage; for % remaining (percent of gastric contents remaining 20 minutes after gavage): normal rats; for effect on gastric emptying (in words): Example 1, dose-response study
# Description: As described in Example 1, gastric emptying was measured in normal Sprague Dawley rats using the retention of an acaloric methylcellulose gel containing Phenol Red delivered by gavage. Dye content in stomachs removed after sacrifice 20 minutes later was determined spectroscopically, and was compared to that in rats sacrificed immediately after gavage to assess emptying.
# This experiment followed a modification of the method of Scarpignato, et al., Arch. Int. Pharmacodyn. Ther. 246:286-94 (1980).
# Male Harlan Sprague Dawley (HSD) rats were used. All animals were housed at 22.7±0.8 C in a 12:12 hour light:dark cycle (experiments being performed during the light cycle) and were fed and watered ad libitum (Diet LM-485, Teklad, Madison, Wis.).
# The determination of gastric emptying by the method described below was performed after a fast of ˜20 hours to ensure that the stomach contained no chyme that would interfere with spectrophotometric absorbance measurements.
# as §1
# In baseline studies, with no drug treatment, gastric emptying over 20 min was determined. […]
# gastric emptying [4] = assay: Gastric emptying inhibition by exendin-4 analogs, methods of Example 1 (Example 2); type: in vivo, Male HSD rats; settings: for ED50 of inhibition of gastric emptying: Example 2, FIG. 3; for ED50 of inhibition of gastric emptying / EC50 (inhibition of gastric emptying): 20 min after gavage; for EC50 (inhibition of gastric emptying): Example 2, Table II; for effect on gastric emptying (in words): Example 2, dose-response study
# Description: as §1, with “Twenty” for “Conscious rats received by gavage, 1.5 ml of an acaloric gel containing 1.5% methyl cellulose (M-0262, Sigma Chemical Co, St Louis, Mo.) and 0.05% phenol red indicator. Twenty”, “The quantity of phenol red that could be recovered from the upper gastrointestinal tract within 20 minutes of gavage was 89±4%; dye which appeared to bind irrecoverably to the gut luminal surface may have accounted for the balance.” left out
Substance,ED50 of inhibition of gastric emptying (gastric emptying [3]),% remaining (percent of gastric contents remaining 20 minutes after gavage) (gastric emptying [3]; dose 0.100 μg),% remaining (percent of gastric contents remaining 20 minutes after gavage) (gastric emptying [3]; dose 0.300 μg),% remaining (percent of gastric contents remaining 20 minutes after gavage) (gastric emptying [3]; dose 1.000 μg),% remaining (percent of gastric contents remaining 20 minutes after gavage) (gastric emptying [3]; dose 3.000 μg),% remaining (percent of gastric contents remaining 20 minutes after gavage) (gastric emptying [3]; dose 10.000 μg),% remaining (percent of gastric contents remaining 20 minutes after gavage) (gastric emptying [3]; dose 100.000 μg),ED50 of inhibition of gastric emptying (gastric emptying [4]),EC50 (inhibition of gastric emptying) (gastric emptying [4]),effect on gastric emptying (in words) (gastric emptying [4]),% remaining (percent of gastric contents remaining 20 minutes after gavage) (gastric emptying [3]; dose 0.010 μg),other results
GLP-1[7-36]NH2 [GLP-1 (7-36)NH2],approximately 9 μg,42.00 (7) %,29.60 (7) %,37.20 (9) %,56.60 (10) %,87.90 (11) %,103.60 (7) %,–,–,–,–,"effect on retention of gastric contents 20 minutes after gavage (gastric emptying [1]; 10 μg GLP-1[7-36]NH2 (sc) alone, FIGS. 6 and 7): potently inhibited gastric emptying; inhibition of pentagastrin-induced gastric acid secretion [2]: inhibitory effect; inhibition of food intake (food intake): not observed"
"^14Leu, ^25Phe exendin-4",–,–,–,–,–,–,–,0.29 µg,0.29 µg,potent inhibitors of gastric emptying; also recorded: dose dependently inhibiting gastric emptying,–,–
exendin-3,~0.1 µg,70.770 (3) %,86.420 (3) %,95.330 (3) %,–,101.760 (3) %,103.640 (3) %,–,–,–,58.240 (3) %,effect on gastric emptying (in words) (gastric emptying [3]; listed as exendin 3): dose-dependently inhibited gastric emptying; effect on gastric emptying (in words) (gastric emptying [3]; listed as exendin-3): potent inhibitors of gastric emptying
exendin-4 acid,–,–,–,–,–,–,–,0.12 µg,0.12 µg,potent inhibitors of gastric emptying; also recorded: dose dependently inhibiting gastric emptying,–,–
exendin[9-39],–,–,–,–,–,–,–,–,–,–,–,"effect on gastric emptying (gastric emptying [1]; 0.3 mg exendin[9-39] (sc) alone): no effect; antagonism of the effect of exendin-4 on gastric emptying inhibition (gastric emptying [1]; 0.3 mg exendin[9-39] (sc) plus 1.0 μg exendin-4 (sc), FIG. 4): did not antagonize; antagonism of the effect of exendin-4 on gastric emptying inhibition (gastric emptying [1]; 0.5 mg exendin[9-39] (iv) plus 0.3 μg exendin-4 (sc), FIG. 5): did not antagonize; antagonism of the effect of GLP-1[7-36]NH2 on gastric emptying inhibition (gastric emptying [1]; 0.5 mg exendin[9-39] (iv) plus 10 μg GLP-1[7-36]NH2 (sc), FIG. 7): did not antagonize; antagonism of the effect of GLP-1[7-36]NH2 on gastric emptying inhibition (gastric emptying [1]; 3 mg exendin[9-39] (sc) plus 10 μg GLP-1[7-36]NH2 (sc), FIG. 6): did not antagonize; reversal / block of the effect of exendin-4 on gastric emptying (gastric emptying [1]; exendin[9-39] administered sc or iv, FIGS. 4 and 5): not reversed; also recorded: did not block; block of the effect of GLP-1[7-36]NH2 on gastric emptying (gastric emptying [1]; exendin[9-39] sc or iv, FIGS. 6 and 7): did not block"
"rat amylin (KCNTATCATQRLANFLVRSSNNLGPVLPPTNVGSNTY; ends and bridges not checked; cysteine pairing not given here; UniProt P12969 38-74, looked up) [second positive control for gastric emptying]",–,52.70 (6) %,58.20 (4) %,96.80 (9) %,108.000 (4) %,101.10 (6) %,101.20 (2) %,–,–,–,37.60 (2) %,–
